From patent publication US20140296216A1, “PYRIMIDO[4,5-D]PYRIMIDINYL COMPOUNDS, PHARMACEUTICAL COMPOSITIONS AND USES THEREOF” (GUANGZHOU INSTITUTE OF BIOMEDICINE AND HEALTH, CHINESE …, priority 2011, published 2014)

What was measured:
EGFRL858R + T790M = EGFRL858R + T790M (Homo sapiens, UniProt P00533, L858R/T790M); test: In vitro enzymatic activity assay (Z'-LYTE), EGFR L858R + T790M; format: biochemical; conditions: Z'-LYTE FRET peptide assay; read-out: EGFRL858R + T790M kinase activity (IC50)
Excerpt: (§1) In vitro enzymatic activity assay: using Z′-LYTE™ technology (detect fluorescence, coupled-enzyme format, based on the differential sensitivity of phosphorylated and non-phosphorylated peptides to proteolytic cleavage), based on FRET, using Z′ LYTE™ FRET peptide substrate, detect the activity of compounds against enzymatic. […] After one hour, site specific protease which can recognize and cleaves non-phosphorylated FRET-peptide. After another hour, using an excitation wavelength of 400 nm excites, then detect the […] at 445 nm and 520 nm.

EGFRWT = EGFRWT (Homo sapiens, UniProt P00533); test: In vitro enzymatic activity assay (Z'-LYTE), wild type EGFR; format: biochemical; conditions: Z'-LYTE FRET peptide assay; read-out: EGFRWT kinase activity (IC50)
Excerpt: as §1

EGFR T790M kinase = target: T1, EGFR T790M kinase (Homo sapiens, UniProt P00533, T790M); test: In vitro enzymatic activity assay (Z'-LYTE), EGFR T790M; format: biochemical; conditions: Z'-LYTE FRET peptide assay; read-out: EGFRT790M kinase activity (IC50)
T1 construct: purchased invitrogen PV4803
Excerpt: as §1

EGFRL858R = EGFRL858R (Homo sapiens, UniProt P00533, L858R); test: In vitro enzymatic activity assay (Z'-LYTE), EGFR L858R; format: biochemical; conditions: Z'-LYTE FRET peptide assay; read-out: EGFRL858R kinase activity (IC50)
Excerpt: as §1

EGFRL861Q = EGFRL861Q (Homo sapiens, UniProt P00533, L861Q); test: In vitro enzymatic activity assay (Z'-LYTE), EGFR L861Q; format: biochemical; conditions: Z'-LYTE FRET peptide assay; read-out: EGFRL861Q kinase activity (IC50)
Excerpt: as §1

[1] = system: HCC827 (lung cancer cells, EGFR E746-A750 deletion); test: Cell proliferation by MTT, HCC827; format: cell-based; conditions: Homo sapiens, HCC827, read-out: HCC827 50% inhibitory concentration (IC50), 72 h
[2] = system: H1975 (lung cancer cells, EGFR L858R&T790M); test: Cell proliferation by MTT, H1975; format: cell-based; conditions: Homo sapiens, NCI-H1975, read-out: H1975 50% inhibitory concentration (IC50), 72 h
[3] = system: A431 (Human epidermal carcinoma, EGFR high expression); test: Cell proliferation by MTT, A431; format: cell-based; conditions: A-431, read-out: A431 50% inhibitory concentration (IC50), 72 h

Chain of EGFRL858R + T790M (P00533 25-1210 T790M/L858R): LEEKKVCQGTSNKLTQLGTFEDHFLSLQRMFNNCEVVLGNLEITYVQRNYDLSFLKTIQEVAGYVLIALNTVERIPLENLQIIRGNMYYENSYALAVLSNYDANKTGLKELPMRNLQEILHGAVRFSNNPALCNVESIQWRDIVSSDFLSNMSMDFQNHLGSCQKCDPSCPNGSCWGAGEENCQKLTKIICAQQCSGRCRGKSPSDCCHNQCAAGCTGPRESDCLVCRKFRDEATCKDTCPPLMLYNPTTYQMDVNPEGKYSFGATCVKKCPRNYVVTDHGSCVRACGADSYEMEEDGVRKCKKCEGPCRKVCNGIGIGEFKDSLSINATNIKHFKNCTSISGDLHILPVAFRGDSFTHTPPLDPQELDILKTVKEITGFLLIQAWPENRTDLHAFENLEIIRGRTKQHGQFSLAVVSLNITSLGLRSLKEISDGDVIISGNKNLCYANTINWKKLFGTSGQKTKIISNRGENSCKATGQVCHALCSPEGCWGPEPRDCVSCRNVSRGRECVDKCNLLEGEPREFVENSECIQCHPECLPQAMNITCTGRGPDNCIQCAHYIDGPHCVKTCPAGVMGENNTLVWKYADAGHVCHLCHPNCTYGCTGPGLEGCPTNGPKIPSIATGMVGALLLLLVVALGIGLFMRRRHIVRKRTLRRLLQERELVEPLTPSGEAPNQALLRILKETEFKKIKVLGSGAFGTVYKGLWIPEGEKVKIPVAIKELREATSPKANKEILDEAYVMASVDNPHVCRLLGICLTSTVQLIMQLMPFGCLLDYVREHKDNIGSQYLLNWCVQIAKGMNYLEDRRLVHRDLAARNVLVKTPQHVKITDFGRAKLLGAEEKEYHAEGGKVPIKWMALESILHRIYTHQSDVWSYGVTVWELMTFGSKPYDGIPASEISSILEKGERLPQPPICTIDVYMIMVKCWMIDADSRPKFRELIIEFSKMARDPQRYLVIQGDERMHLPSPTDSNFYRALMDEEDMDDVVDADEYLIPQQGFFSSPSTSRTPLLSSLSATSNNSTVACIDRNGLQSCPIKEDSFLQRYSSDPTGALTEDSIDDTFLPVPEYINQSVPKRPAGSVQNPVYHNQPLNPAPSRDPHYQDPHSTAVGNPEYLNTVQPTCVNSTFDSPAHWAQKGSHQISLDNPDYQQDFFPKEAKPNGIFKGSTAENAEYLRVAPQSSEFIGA
T1 sequence (P00533 25-1210 T790M): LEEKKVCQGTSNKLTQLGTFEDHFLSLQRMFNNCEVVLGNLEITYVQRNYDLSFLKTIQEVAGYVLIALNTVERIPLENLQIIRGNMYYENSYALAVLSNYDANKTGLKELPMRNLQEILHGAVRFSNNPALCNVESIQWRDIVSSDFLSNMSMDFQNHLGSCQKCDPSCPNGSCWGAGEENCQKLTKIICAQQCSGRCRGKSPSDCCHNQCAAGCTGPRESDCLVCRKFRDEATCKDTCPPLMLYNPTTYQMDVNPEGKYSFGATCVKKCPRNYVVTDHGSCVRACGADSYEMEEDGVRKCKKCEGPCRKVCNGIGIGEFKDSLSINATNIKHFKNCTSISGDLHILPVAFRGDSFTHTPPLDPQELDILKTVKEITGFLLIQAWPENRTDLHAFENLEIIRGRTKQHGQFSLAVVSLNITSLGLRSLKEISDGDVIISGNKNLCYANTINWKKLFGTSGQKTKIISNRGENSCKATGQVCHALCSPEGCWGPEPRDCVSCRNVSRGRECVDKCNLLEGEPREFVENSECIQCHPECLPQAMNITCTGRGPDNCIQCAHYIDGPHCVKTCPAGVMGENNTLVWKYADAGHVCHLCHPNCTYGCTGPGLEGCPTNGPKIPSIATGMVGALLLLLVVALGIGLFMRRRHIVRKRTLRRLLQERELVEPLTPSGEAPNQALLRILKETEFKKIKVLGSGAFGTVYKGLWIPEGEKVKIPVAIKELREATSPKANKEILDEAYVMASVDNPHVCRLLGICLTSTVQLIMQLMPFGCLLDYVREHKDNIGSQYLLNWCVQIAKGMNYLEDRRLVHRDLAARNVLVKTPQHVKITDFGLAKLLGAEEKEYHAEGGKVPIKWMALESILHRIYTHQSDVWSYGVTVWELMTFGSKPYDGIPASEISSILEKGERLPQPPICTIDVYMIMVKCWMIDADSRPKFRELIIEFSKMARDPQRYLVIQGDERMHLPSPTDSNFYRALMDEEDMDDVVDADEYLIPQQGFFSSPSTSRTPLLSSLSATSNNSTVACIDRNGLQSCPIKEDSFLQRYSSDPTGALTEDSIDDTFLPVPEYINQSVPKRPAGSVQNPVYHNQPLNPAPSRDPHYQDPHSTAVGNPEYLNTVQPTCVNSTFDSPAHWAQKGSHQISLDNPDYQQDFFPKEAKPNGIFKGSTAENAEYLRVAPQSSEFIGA
Chain of EGFRWT (P00533 25-1210): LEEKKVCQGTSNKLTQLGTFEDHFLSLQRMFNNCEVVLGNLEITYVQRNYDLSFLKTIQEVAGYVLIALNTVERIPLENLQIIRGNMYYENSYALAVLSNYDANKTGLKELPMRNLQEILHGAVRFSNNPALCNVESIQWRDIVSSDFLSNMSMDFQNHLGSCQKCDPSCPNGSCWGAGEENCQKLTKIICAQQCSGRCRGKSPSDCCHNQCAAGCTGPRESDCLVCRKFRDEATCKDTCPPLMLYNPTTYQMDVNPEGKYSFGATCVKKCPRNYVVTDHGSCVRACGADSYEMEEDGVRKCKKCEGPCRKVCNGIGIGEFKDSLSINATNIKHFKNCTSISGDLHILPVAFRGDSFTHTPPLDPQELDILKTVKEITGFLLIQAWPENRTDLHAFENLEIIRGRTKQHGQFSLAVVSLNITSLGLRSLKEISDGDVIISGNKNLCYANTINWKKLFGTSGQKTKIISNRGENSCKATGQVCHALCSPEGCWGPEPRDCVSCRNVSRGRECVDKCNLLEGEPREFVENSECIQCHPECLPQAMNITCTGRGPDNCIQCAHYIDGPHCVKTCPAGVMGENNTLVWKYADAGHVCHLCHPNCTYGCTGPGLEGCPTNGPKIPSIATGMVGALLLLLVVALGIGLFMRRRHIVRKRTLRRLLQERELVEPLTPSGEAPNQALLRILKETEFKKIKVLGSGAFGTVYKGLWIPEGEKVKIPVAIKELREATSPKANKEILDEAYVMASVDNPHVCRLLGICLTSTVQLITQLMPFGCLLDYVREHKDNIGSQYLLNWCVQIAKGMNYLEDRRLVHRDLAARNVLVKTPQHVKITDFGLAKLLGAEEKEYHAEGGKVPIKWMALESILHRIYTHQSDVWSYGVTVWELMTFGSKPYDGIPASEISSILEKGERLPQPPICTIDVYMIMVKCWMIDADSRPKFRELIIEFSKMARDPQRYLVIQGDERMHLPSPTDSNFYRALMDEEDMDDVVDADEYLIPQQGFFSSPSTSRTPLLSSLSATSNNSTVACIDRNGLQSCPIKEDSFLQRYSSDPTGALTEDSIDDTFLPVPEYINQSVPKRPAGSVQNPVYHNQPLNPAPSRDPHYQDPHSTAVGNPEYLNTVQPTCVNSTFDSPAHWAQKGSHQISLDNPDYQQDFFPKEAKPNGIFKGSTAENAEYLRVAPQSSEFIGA
Chain of EGFRL861Q (P00533 25-1210 L861Q): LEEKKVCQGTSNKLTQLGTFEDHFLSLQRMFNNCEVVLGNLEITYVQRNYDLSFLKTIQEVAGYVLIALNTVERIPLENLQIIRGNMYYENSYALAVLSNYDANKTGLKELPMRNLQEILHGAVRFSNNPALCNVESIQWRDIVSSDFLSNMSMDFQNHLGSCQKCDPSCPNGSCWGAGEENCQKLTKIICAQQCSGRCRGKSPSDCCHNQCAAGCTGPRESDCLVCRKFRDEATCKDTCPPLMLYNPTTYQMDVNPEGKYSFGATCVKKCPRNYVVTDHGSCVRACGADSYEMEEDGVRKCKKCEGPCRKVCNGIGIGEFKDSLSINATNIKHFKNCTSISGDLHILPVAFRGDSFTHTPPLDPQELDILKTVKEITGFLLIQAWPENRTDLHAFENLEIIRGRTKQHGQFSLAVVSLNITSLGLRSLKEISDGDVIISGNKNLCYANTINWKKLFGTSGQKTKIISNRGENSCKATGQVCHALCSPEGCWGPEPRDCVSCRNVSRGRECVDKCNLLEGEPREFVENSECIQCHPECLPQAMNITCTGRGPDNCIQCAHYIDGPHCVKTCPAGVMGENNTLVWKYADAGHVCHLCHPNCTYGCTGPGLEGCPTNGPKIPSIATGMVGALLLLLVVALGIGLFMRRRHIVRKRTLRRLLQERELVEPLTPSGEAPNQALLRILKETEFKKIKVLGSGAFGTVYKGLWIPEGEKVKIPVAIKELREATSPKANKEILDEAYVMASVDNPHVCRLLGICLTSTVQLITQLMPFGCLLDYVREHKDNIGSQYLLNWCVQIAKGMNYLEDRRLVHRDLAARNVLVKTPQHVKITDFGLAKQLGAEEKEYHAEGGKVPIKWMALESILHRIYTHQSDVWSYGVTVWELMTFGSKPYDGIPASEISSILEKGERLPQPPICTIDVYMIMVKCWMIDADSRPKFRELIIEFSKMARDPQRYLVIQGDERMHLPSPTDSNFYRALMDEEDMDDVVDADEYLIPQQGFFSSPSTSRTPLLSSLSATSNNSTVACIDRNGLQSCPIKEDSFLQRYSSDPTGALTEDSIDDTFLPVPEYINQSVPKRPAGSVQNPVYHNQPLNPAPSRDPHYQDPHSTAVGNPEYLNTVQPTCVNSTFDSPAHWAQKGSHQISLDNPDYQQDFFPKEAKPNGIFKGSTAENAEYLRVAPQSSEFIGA

SMILES | IC50 (EGFRL858R + T790M) [nM] | IC50 (EGFRWT) [nM] | IC50 (EGFR T790M kinase) [nM] | IC50 (EGFRL858R) [nM] | IC50 (EGFRL861Q) [nM] | IC50 [1] [nM] | IC50 [2] [nM] | IC50 [3] [nM]
C=CS(=O)(=O)Nc1cccc(N2C(=O)N(C)Cc3cnc(Nc4ccc(N5CCN(C)CC5)cc4OC)nc32)c1 [C-EGF40, N-(3-(7-(2-methoxy-4-(4-methylpiperazin-1-yl)phenylamino)-3-methyl-2-oxo-3,4-dihydropyrimido[4,5-d]pyrimidin-1(2H)-yl)phenyl)ethenesulfonamide] | 10 to 100 | ≤ 10 | 10 to 100 | ≤ 10 | ≤ 10 |  |  | 
C=CC(=O)Nc1cccc(N2C(=O)N(c3ccccc3C)Cc3cnc(Nc4ccc(N5CCN(C)CC5)cc4OC)nc32)c1 [C-EGF39, N-(3-(7-(2-methoxy-4-(4-methylpiperazin-1-yl)phenylamino)-2-oxo-3-o-tolyl-3,4-dihydropyrimido[4,5-d]pyrimidin-1(2H)-yl)phenyl)acrylamide] | ≤ 10 | ≤ 10 | ≤ 10 | ≤ 10 | ≤ 10 |  |  | 
C=CC(=O)Nc1cccc(N2C(=O)N(c3ccc(OCc4ccccc4)cc3)Cc3cnc(Nc4ccc(N5CCN(C)CC5)cc4OC)nc32)c1 [C-EGF32, N-(3-(3-(4-(benzyloxy)phenyl)-7-(2-methoxy-4-(4-methylpiperazin-1-yl)phenylamino)-2-oxo-3,4-dihydropyrimido[4,5-d]pyrimidin-1(2H)-yl)phenyl)acrylamide] | ≤ 10 | ≤ 10 | ≤ 10 | ≤ 10 | ≤ 10 |  |  | 
C=CC(=O)Nc1cccc(N2C(=O)N(c3cccc4ccccc34)Cc3cnc(Nc4ccc(N5CCN(C)CC5)cc4OC)nc32)c1 [C-EGF28, N-(3-(7-(2-methoxy-4-(4-methylpiperazin-1-yl)phenylamino)-3-(naphthalen-1-yl)-2-oxo-3,4-dihydropyrimido[4,5-d]pyrimidin-1(2H)-yl)phenyl)acrylamide] | ≤ 10 | ≤ 10 | ≤ 10 | ≤ 10 | ≤ 10 | 6 | 30 | 
C=CC(=O)Nc1cccc(N2C(=O)N(Cc3ccccc3)Cc3cnc(Nc4ccc(N5CCN(C)CC5)cc4OC)nc32)c1 [C-EGF29, N-(3-(3-benzyl-7-(2-methoxy-4-(4-methylpiperazin-1-yl)phenylamino)-2-oxo-3,4-dihydropyrimido[4,5-d]pyrimidin-1(2H)-yl)phenyl)acrylamide] | ≤ 10 | ≤ 10 | ≤ 10 | ≤ 10 | ≤ 10 |  |  | 
C=CC(=O)Nc1cccc(N2C(=O)N(c3cccc(C#N)c3)Cc3cnc(Nc4ccc(N5CCN(C)CC5)cc4OC)nc32)c1 [C-EGF36, N-(3-(3-(3-cyanophenyl)-7-(2-methoxy-4-(4-methylpiperazin-1-yl)phenylamino)-2-oxo-3,4-dihydropyrimido[4,5-d]pyrimidin-1(2H)-yl)phenyl)acrylamide] | ≤ 10 | ≤ 10 | ≤ 10 | ≤ 10 | ≤ 10 |  |  | 
C=CC(=O)Nc1cccc(N2C(=O)N(c3ccccc3)Cc3cnc(Nc4ccc(N5CCN(C)CC5)cc4OC)nc32)c1 [C-EGF27, N-(3-(7-(2-methoxy-4-(4-methylpiperazin-1-yl)phenylamino)-2-oxo-3-phenyl-3,4-dihydropyrimido[4,5-d]pyrimidin-1(2H)-yl)phenyl)acrylamide] | ≤ 10 | ≤ 10 | ≤ 10 | ≤ 10 | ≤ 10 |  |  | 
CCC(=O)Nc1cccc(N2C(=O)N(C)Cc3cnc(Nc4ccc(N5CCN(C)CC5)cc4OC)nc32)c1 [C-EGF34, N-(3-(7-(2-methoxy-4-(4-methylpiperazin-1-yl)phenylamino)-3-methyl-2-oxo-3,4-dihydropyrimido[4,5-d]pyrimidin-1(2H)-yl)phenyl)propionamide] | 1000 to 10000 | 1000 to 10000 | 1000 to 10000 | 1000 to 10000 | 1000 to 10000 |  | > 20000 | > 30000
C=CC(=O)Nc1cccc(N2C(=O)N(c3cccc([N+](=O)[O-])c3)Cc3cnc(Nc4ccc(N5CCN(C)CC5)cc4OC)nc32)c1 [C-EGF37, N-(3-(7-(2-methoxy-4-(4-methylpiperazin-1-yl)phenylamino)-3-(3-nitrophenyl)-2-oxo-3,4-dihydropyrimido[4,5-d]pyrimidin-1(2H)-yl)phenyl)acrylamide] | 10 to 100 | ≤ 10 | 10 to 100 | ≤ 10 | ≤ 10 |  |  | 
C=CC(=O)Nc1cccc(N2C(=O)N(c3ccc(-c4ccccc4)cc3)Cc3cnc(Nc4ccc(N5CCN(C)CC5)cc4OC)nc32)c1 [C-EGF30, N-(3-(3-(biphenyl-4-yl)-7-(2-methoxy-4-(4-methylpiperazin-1-yl)phenylamino)-2-oxo-3,4-dihydropyrimido[4,5-d]pyrimidin-1(2H)-yl)phenyl)acrylamide] | ≤ 10 | ≤ 10 | ≤ 10 | ≤ 10 | ≤ 10 |  |  | 
C=CC(=O)Nc1cccc(N2C(=O)N(c3ccc(F)c(Cl)c3)Cc3cnc(Nc4ccc(N5CCN(C)CC5)cc4OC)nc32)c1 [C-EGF38, N-(3-(3-(3-chloro-4-fluorophenyl)-7-(2-methoxy-4-(4-methylpiperazin-1-yl)phenylamino)-2-oxo-3,4-dihydropyrimido[4,5-d]pyrimidin-1(2H)-yl)phenyl)acrylamide] | ≤ 10 | ≤ 10 | ≤ 10 | ≤ 10 | ≤ 10 |  |  | 
C=CC(=O)Nc1cccc(N2C(=O)N(C)Cc3cnc(Nc4ccc(N5CC[C@@H](N(C)C)C5)cc4OC)nc32)c1 [C-EGF15, (R)—N-(3-(7-(4-(3-(dimethylamino)pyrrolidin-1-yl)-2-methoxyphenylamino)-3-methyl-2-oxo-3,4-dihydropyrimido[4,5-d]pyrimidin-1(2H)-yl)phenyl)acrylamide] | ≤ 10 | 10 to 100 | 10 to 100 | ≤ 10 | ≤ 10 |  | 449 | 
C=CC(=O)Nc1cccc(N2C(=O)N(c3cccc(Cl)c3)Cc3cnc(Nc4ccc(N5CCN(C)CC5)cc4OC)nc32)c1 [C-EGF35, N-(3-(3-(3-chlorophenyl)-7-(2-methoxy-4-(4-methylpiperazin-1-yl)phenylamino)-2-oxo-3,4-dihydropyrimido[4,5-d]pyrimidin-1(2H)-yl)phenyl)acrylamide] | ≤ 10 | ≤ 10 | ≤ 10 | ≤ 10 | ≤ 10 |  |  | 
C=CC(=O)Nc1cccc(N2C(=O)N(c3ccc(Oc4ccccc4)cc3)Cc3cnc(Nc4ccc(N5CCN(C)CC5)cc4OC)nc32)c1 [C-EGF31, N-(3-(7-(2-methoxy-4-(4-methylpiperazin-1-yl)phenylamino)-2-oxo-3-(4-phenoxyphenyl)-3,4-dihydropyrimido[4,5-d]pyrimidin-1(2H)-yl)phenyl)acrylamide] | ≤ 10 | ≤ 10 | ≤ 10 | ≤ 10 | ≤ 10 |  |  | 
C=CC(=O)Nc1cccc(N2C(=O)N(C)Cc3cnc(Nc4ccc(N5CCN(C(C)=O)CC5)cc4OC)nc32)c1 [C-EGF20, N-(3-(7-(4-(4-acetylpiperazin-1-yl)-2-methoxyphenylamino)-3-methyl-2-oxo-3,4-dihydropyrimido[4,5-d]pyrimidin-1(2H)-yl)phenyl)acrylamide] | ≤ 10 | ≤ 10 | ≤ 10 | ≤ 10 | ≤ 10 |  | 143 | 
C=CC(=O)Nc1cccc(N2C(=O)N(C)Cc3cnc(Nc4ccc(N5CC[C@H](N(C)C)C5)cc4OC)nc32)c1 [C-EGF16, (S)—N-(3-(7-(4-(3-(dimethylamino)pyrrolidin-1-yl)-2-methoxyphenylamino)-3-methyl-2-oxo-3,4-dihydropyrimido[4,5-d]pyrimidin-1(2H)-yl)phenyl)acrylamide] | ≤ 10 | ≤ 10 | 10 to 100 | ≤ 10 | ≤ 10 |  | 380 | 
C=CC(=O)Nc1ccc(F)c(N2C(=O)N(Cc3ccccc3)Cc3cnc(Nc4ccc(N5CCN(C)CC5)cc4OC)nc32)c1 [C-EGF41, N-(3-(3-benzyl-7-(2-methoxy-4-(4-methylpiperazin-1-yl)phenylamino)-2-oxo-3,4-dihydropyrimido[4,5-d]pyrimidin-1(2H)-yl)-4-fluorophenyl)acrylamide] | ≤ 10 | ≤ 10 | ≤ 10 | ≤ 10 | ≤ 10 |  |  | 
